The source of these data is US8048877B2, “Guanidine derivatives and their medical use” (Neurosearch A/S, priority 2006, dated 2011).

The target in one data set is T1, hSK3 channels (Homo sapiens, UniProt Q9UGI6).
T1 construct: expressed in transfected cells; host or cells: HEK293
Nature of the data set: whole-cell patch-clamp recording of SK3 current in HEK293 cells expressing hSK3 channels. Type of data set: cell-based. The conditions noted are these: current at −75 mV, free Ca2+ 0.3-0.4 μM, room temperature, read-out: Kd value (concentration required for decreasing the baseline current to 50% of the initial current). The protocol:
The ionic current through small-conductance Ca^2+-activated K^+ channels (SK channels, subtype 3) was recorded using the whole-cell configuration of the patch-clamp technique.
HEK293 tissue culture cells expressing hSK3 channels were grown in DMEM (Dulbecco's Modified Eagle Medium) supplemented with 10% FCS (foetal calf serum) at 37° C. in 5% CO2. At 60-80% confluency, cells were harvested by trypsin treatment and seeded on cover slips.
Cells plated on coverslips were placed in a 15 μl perfusion chamber (flowrate ˜1 ml/min) mounted on an inverted microscope placed on a vibration-free table in a grounded Faraday cage. The experiments were performed at room temperature (20-22° C.). […] Data were stored directly on the hard-disk and analysed by IGOR software (Wavemetrics, Lake Oswega, Oreg., USA).
The whole-cell configuration of the patch-clamp technique was applied. […] Cell capacitance was electronically compensated and the resistance between the pipette and the cell interior (the series resistance, Rs) was measured and compensated for. […]
The intracellular (pipette) solution contained: 154 mM KCl, 10 mM HEPES, 10 mM EGTA. Concentrations of CaCl2 and MgCl2 needed to obtain the desired free concentrations of Ca^2+ (0.3-0.4 μM, Mg^2+ always 1 mM) were calculated by EqCal software (Cambridge, UK) and added. […]
Background: Patch clamp records ionic current or voltage across a cell membrane.

Where a name gives a salt, the structure may show the parent alone. Where only a bound is given, the exact number is not on record here.

The term melting point denotes the temperature of the solid-liquid transition. In turn, `N=C1N(Cc2ccc(F)c(F)c2)Cc2ccccc2N1Cc1ccc(F)c(F)c1` (as salt: salt) [Compound 4, 1,3-Bis-(3,4-difluorobenzyl)-3,4-dihydro-1H-quinazolin-2-ylideneamine] registered a melting point of 215 to 218 °C.
Same read-out and setting: as for `N=C1N(Cc2cc(F)c(F)cc2Br)Cc2ccccc2N1Cc1cc(F)c(F)cc1Br` (as salt: salt) [Compound 9, 1,3-Bis-(2-bromo-4,5-difluorobenzyl)-3,4-dihydro-1H-quinazolin-2-ylideneamine], the figure is 220 to 224 °C; as for `N=C1N(Cc2ccc(F)c(F)c2)[C@@H]2CCCC[C@H]2N1Cc1ccc(F)c(F)c1` (racemic) (as salt: salt) [Compound 5, (±)-trans-1,3-Bis-(3,4-difluoro-benzyl)octahydro-benzoimidazol-2-ylideneamine], 238 to 240 °C.
For `N=C1N(Cc2ccc(F)c(F)c2)CCCN1Cc1ccc(F)c(F)c1` [Compound 7, 1,3-Bis-(3,4-difluorobenzyl)tetrahydropyrimidin-2-ylideneamine], the Kd on hSK3 channels is less than 1000 nM.
With `COc1ccc(OC(F)(F)F)cc1CN1CCN(Cc2cc(OC(F)(F)F)ccc2OC)C1=N` [Compound 15, 1,3-Bis-(2-methoxy-5-trifluoromethoxybenzyl)imidazolidin-2-ylideneamine], at hSK3 channels, the Kd was less than 1000 nM.
